Data on one compound can be found in ChEMBL document CHEMBL1148181, “Anti-AIDS agents, 9. Suberosol, a new C31 lanostane-type triterpene and anti-HIV principle from Polyalthia suberosa” (J Nat Prod, 1993).

Assay [1] has as its system H9. Put plainly: Cytotoxicity against human H9 lymphocytes. It is filed as cell-based.
In assay [2] the test system is Human immunodeficiency virus 1. Nature of the assay: Antiviral activity against HIV1 3B in human H9 lymphocytes after 3 days by p24 antigen capture assay. It is filed as functional, organism-based. The conditions noted are these: Human immunodeficiency virus 1, 3B, 72 h.

In brackets after ≈: the same amount, converted by molar mass.

Broadly, the IC50 is the concentration that inhibits the measured activity by half. Low values mean greater potency, high ones weaker potency. A word on the EC50: it is the concentration that produces a half-maximal response. A higher EC50 goes with a less potent agent. `C=C(CC[C@@H](C)[C@H]1C[C@H](O)[C@@]2(C)C3=CC[C@H]4C(C)(C)[C@@H](O)CC[C@]4(C)C3=CC[C@]12C)C(C)C` [SUBEROSOL]: in assay [1], the concentration for half-maximal inhibition (IC50) is 20 µg/mL (≈ 44 µM). In addition, the EC50 in assay [2] stood at 3 µg/mL (≈ 6.6 µM).
